Assay [1] deals with HeLa (epithelial adenocarcinoma of cervix). Put plainly: Proliferation assay (CellTiter 96), HeLa cells. The class given is cell-based, human. The settings on record: Homo sapiens, pH 6.5, 44 h, cis-UCA 10 mM, CPT 2 μM, 15,000 cells per 100 μl, read-out: Inhibition of proliferation (mean percentage inhibition ± SD compared with untreated control). From the text: (§1) Transformed tumour cell lines WM 266-4 and A2058 (cutaneous melanoma), HT-1080 (epithelial fibrosarcoma), HeLa (epithelial adenocarcinoma of cervix), HK293 (kidney epithelial cells) and non-transformed cell line HSF (skin fibroblast from a healthy volunteer donor) of human origin have been described earlier (Li et al. 2003). The K562 (chronic myelogenous leukemia) cells were purchased from American Type Culture Collection.
(§2) The cells were maintained in logarithmic growth phase in IMDM medium (Invitrogen, Paisley, UK) supplemented with 10% fetal calf serum and antibiotics in a humidified incubator at +37° C., 5% CO2. The adherent cells lines were harvested for experiments with 0.25% trypsin-EDTA in PBS for 5 min and then resuspended and washed in medium. After counting of viable cells, 15,000 to 75,000 cells were transferred into flat-bottom 96-well cell culture plates in a volume of 100 or 150 μl.
(§3) The proliferation activity of cultured cell lines was quantified in flat-bottom 96-well plates with a modified colorimetric assay based on a tetrazolium derivative (CellTiter 96 Aqueous One Solution Cell Proliferation Assay, Promega). The cells were cultured in the presence of camptothecin and/or cis-UCA for 20 to 92 h, then the proliferation reagent was added for 2 h, and the absorbance at 490 nm was measured in a plate reader. […]

For assay [2], the system named is A2058 human cutaneous melanoma tumours. Briefly: Tumour growth in SCID/SCID mice in vivo. The settings on record: 16-day treatment, 1 μM CPT, pH 6.5. How it is done:
All injection solutions were adjusted to pH 6.5. The data points have been normalised to unity tumour size at day 0. Data from five mice in each group is included (mean, SD).
The A2058 human cutaneous melanoma cells were cultured under normal cell culture conditions prior to injection into mice. Two million A2058 cells were injected s.c. into the neck of SCID/SCID mice (Charles River Laboratories, Germany). Tumours were allowed to develop for two weeks to the size of a small pearl before the treatments. The mice were divided into four groups of six animals, each containing three males and three females. Each tumour was first injected 50 μl of one of the test solutions (A: PBS; B: 30 mM cis-UCA; C: 1 μM CPT; D: 30 mM cis-UCA+1 μM CPT) three times a week (Mon-Wed-Fri). After day 7 from the beginning of injections, the injection volume was increased to 150 μl injected into three different sides of the tumour. Tumour length and width were measured with a caliper three times a week before each injection. Tumour planar area was calculated as length×width. The tumour growth inhibition efficiency I of the treatments was calculated according to Equation 1:
[formula] where Sr represents the normalised relative size of the tumour in the control group (A) or any of the treatment groups (T), and d0 to d16 are the (eight) measuring time points during the 16-day treatment period.
(§4) After 16 days from the first injection, all the animals were sacrificed with CO2, and the tumours were collected and fixed in formalin for further studies. In groups A, C, and D, one mouse was sacrificed before the end of the experiment because of poor development of the tumour (no measurable tumour at day 0). One animal in group B was sacrificed prematurely after it had severly scratched the tumour. Data from these animals were not included in the calculation of the tumour size results. All the removed animals were female mice. Immunohistochemical data was obtained also from the removed mice except from group B. The experiments were conducted under a protocol approved by the local ethics committee.

A further assay has as its system HSF (skin fibroblast). Put plainly: Proliferation assay (CellTiter 96), HSF cells. The class given is cell-based, human. The settings on record: Homo sapiens, Skin fibroblast, pH 6.5, 44 h, cis-UCA 10 mM, CPT 2 μM, 15,000 cells per 100 μl, read-out: Inhibition of proliferation (mean percentage inhibition ± SD compared with untreated control).
Source text: as §1, §2, §3

Assay [3] relates to Ki67 (proliferating cells) in A2058 tumours. Briefly: Immunohistochemistry of tumours, Ki67 staining. The class given is in vivo, SCID/SCID mice. The settings on record: tumours collected after 16 days; 30 mM cis-UCA, 1 μM CPT intratumoural.
Source text: as §4
(§5) Paraffin sections of the tumours were stained with haematoxylin/eosin following standard procedures for an overall picture. Ki67 was stained to detect the amount of proliferating cells. The staining procedure for the Ki67 primary antibody (Dako, Klostrup, Denmark) at 1:50 dilution and secondary antibody (StreptABComplex/HRP Duet Mouse/Rabbit, Dako) at 1:100 dilution followed the instructions provided by the manufacturer. Two sections from each tumour was examined.

The subject of assay [4] is K562 (chronic myelogenous leukemia). Briefly: Proliferation assay (CellTiter 96), K562 cells. The class given is cell-based, human. The settings on record: Homo sapiens, pH 6.5, 44 h, cis-UCA 10 mM, CPT 2 μM, 15,000 cells per 100 μl, read-out: Inhibition of proliferation (mean percentage inhibition ± SD compared with untreated control).
Source text: as §1, §2, §3

Assay [5] has as its system A2058 (cutaneous melanoma). Briefly: Proliferation assay (CellTiter 96), A2058 cells. The settings on record: Homo sapiens, pH 6.5, 44 h, cis-UCA 10 mM, CPT 2 μM, 15,000 cells per 100 μl, read-out: Inhibition of proliferation (mean percentage inhibition ± SD compared with untreated control). The class given is cell-based, human. How it is done:
(§6) The cells were cultured in triplicate with or without 2 μM camptothecin (CPT) or 10 mM cis-UCA in a density of 15,000 cells per […]. A, Cells taken from normal pH 7.4 cultures to test conditions at pH 6.5. B, Cells cultured in low pH 6.7 adaptation medium for 3 d, then tested at pH 6.5. C, Cells cultured and tested at pH 7.4.
Proliferation was measured in a 44-h assay at pH 6.5 with 30 μM to 30 mM cis-UCA and 2 μM camptothecin. Both proliferation (A) and calculated percentage inhibition data (B) are presented.
as §1, §2
(§7) The proliferation activity of cultured cell lines was quantified in flat-bottom 96-well plates with a modified colorimetric assay based on a tetrazolium derivative (CellTiter 96 Aqueous One Solution Cell Proliferation Assay, Promega). The cells were cultured in the presence of camptothecin and/or cis-UCA for 20 to 92 h, then the proliferation reagent was added for 2 h, and the absorbance at 490 nm was measured in a plate reader. Blank absorption values in wells containing medium without cells were subtracted before comparison analysis.
(§8) The cell lines were tested in a 44-h culture at pH 6.5 with or without 2 μM camptothecin and 10 mM cis-UCA at 15,000 cells per 100 μl total volume. […] In order to further characterise the effective anti-proliferative concentration range of cis-UCA, proliferation was measured in a 44-h assay at pH 6.5 with cis-UCA concentration ranging from 30 μM to 30 mM.

For assay [6], the system named is HK293 (kidney epithelial cells). Put plainly: Proliferation assay (CellTiter 96), HK293 cells. Format: cell-based, human. The settings on record: Homo sapiens, Epithelial cell, pH 6.5, 44 h, cis-UCA 10 mM, CPT 2 μM, 15,000 cells per 100 μl, read-out: Inhibition of proliferation (mean percentage inhibition ± SD compared with untreated control).
Source text: as §1, §2, §3

In a further assay the test system is cell lines. Put plainly: Proliferation assay, statements on the cell lines as a group. Format: cell-based, human. The settings on record: camptothecin 2 μM; 44 h; pH 6.5 or 7.4 (FIG. 1). How it is done: The cells were cultured for 44 h with or without 2 μM camptothecin (CPT) at pH 6.5 or 7.4 conditions. After a 2-h incubation with the proliferation assay reagent, the absorbance at 490 nm was recorded. Cells were cultured in a density of 15,000 cells (K562, HT-1080, HK293) or 75,000 cells (the other cells) in a volume of 150 μl.
Three cell lines were cultured with cis-UCA and/or 1 μM camptothecin at a density of […] per well (100 μl) for 44 h in pH 6.5 medium. Blank wells with all the cis-UCA concentrations but without cells were included and their absorbance subtracted from those of the corresponding test wells.
Transformed tumour cell lines WM 266-4 and A2058 (cutaneous melanoma), HT-1080 (epithelial fibrosarcoma), HeLa (epithelial adenocarcinoma of cervix), HK293 (kidney epithelial cells) and non-transformed cell line HSF (skin fibroblast from a healthy volunteer donor) of human origin have been described earlier (Li et al. 2003). […]
as §3

For assay [7], the system named is WM 266-4 (cutaneous melanoma). Put plainly: Proliferation assay (CellTiter 96), WM266-4 cells. The class given is cell-based, human. The settings on record: Homo sapiens, WM 266-4, pH 6.5, 44 h, cis-UCA 10 mM, CPT 2 μM, 15,000 cells per 100 μl, read-out: Inhibition of proliferation (mean percentage inhibition ± SD compared with untreated control). How it is done:
as §6, §1, §2, §7, §8

In assay [8] the test system is HT-1080 (epithelial fibrosarcoma). Briefly: Proliferation assay (CellTiter 96), HT-1080 cells. Format: cell-based, human. The settings on record: Homo sapiens, pH 6.5, 44 h, cis-UCA 10 mM, CPT 2 μM, 15,000 cells per 100 μl, read-out: Inhibition of proliferation (mean percentage inhibition ± SD compared with untreated control).
Source text: as §1, §2, §3

The test system of the next assay is A2058 tumours. Briefly: Haematoxylin/eosin staining of tumour sections (necrosis). Format: in vivo, SCID/SCID mice. The settings on record: tumours collected after 16 days; 30 mM cis-UCA, 1 μM CPT intratumoural.
Source text: as §4, §5

In assay [9] the test system is human polymorphonuclear neutrophils. The settings on record: extracellular pH range 6.1 to 7.0; patent application US2006035973; cited from earlier work.

“And” between values parts separate entries of the source, which are not always exact repeats. Identical values can stand only once.

As to `CC[C@@]1(O)C(=O)OCc2c1cc1n(c2=O)Cc2cc3ccccc3nc2-1` [CPT, Camptothecin, reference compound], the inhibition at 2 µM in [1] turned out to be 78 ± 1.6%; in the assay on HSF (skin fibroblast), 37 ± 0.4%; in assay [4], 77 ± 3.3%; in assay [5], 84 ± 3.3%; in assay [6], 56 ± 1%; in assay [7] it was 81 ± 1.1%. In addition, the inhibition at 2 µM in [8] is 71 ± 1.7%. Moreover, the “mean tumour area relative to the initial size at day 0” value in [2] (intratumoural injection three times a week, 30 mM cis-UCA) was “about four”. Besides, the “Growth suppression, female” value in assay [2] (female mice, intratumoural 30 mM cis-UCA) is given as 90.3%. The “Growth suppression, male” value in assay [2] (male mice, intratumoural 30 mM cis-UCA) is 44.7%. Besides, the “Ki67+ (number of positive tumours/total analysed)” value in [3] was “three out of six tumours and 3/6”. The “anti-proliferative effect in all cell line cultures” value in the assay on cell lines is “inhibited the proliferation in all cell line cultures and showed more efficient inhibition at pH 6.5”. Moreover, in the assay with A2058 tumours, the “Necrosis (histological sections with haematoxylin/eosin staining)” value is “Dead cells and large necrotic areas were detected and yes”.

With `O=C(O)C=Cc1c[nH]cn1` [trans-UCA, 3-(1H-imidazol-4-yl)-2-propenoic acid, reference compound], in assay [9], the “effect on the intracellular pH of neutrophils” value was “not trans-UCA affected the intracellular pH”.

The values are drawn from patent US8338475B2, “Anti-proliferative pharmaceutical composition” (BioCis Pharma Oy, priority 2003, dated 2012).
